Test system: Myo5 SH3 domain
Experiment: SPOT analysis of cellulose-bound peptides (WISE), Myo5 SH3 domain (Dataset S4)
Format: binding, Saccharomyces cerevisiae
Details: for The normalized value in BLU units: Myo5 SH3 domain
[1] = SPOT analysis of membrane-bound peptides, normalized value (see methods)
[2] = SPOT analysis of cellulose-bound 14-mer yeast proteome peptides, normalized value, mean where the peptide was synthesized more than once
[3] = SPOT analysis of membrane-synthesized peptides probed with Myo5 SH3 domain, normalized value
[4] = SPOT analysis of cellulose-bound peptides probed with Myo5 SH3 domain, normalized value

TQMKRLKPVSPGLR was tested, and the “The normalized value in BLU units” value [1] was 1445.1 BLU.
With TQPVRKNPEAPARR the “The normalized value in BLU units” value [1] was 232.1 BLU.
For TQSGRMGPSEPKHR, the “The normalized value in BLU units” value [2] was 455.6 BLU.
For TSCTKEKPTPPTTT, the “The normalized value in BLU units” value [2] was 118.4 BLU.
With TSGYKYFPQFPQLK the “The normalized value in BLU units (SPOT analysis, Myo5 SH3)” value [3] was 234.6 BLU.
TSISRISPQDPEAK was tested, and the “The normalized value in BLU units (SPOT analysis, Myo5 SH3)” value [3] was 194.2 BLU.
With TSNTKWTPITPSVI the “The normalized value in BLU units” value [1] was 141.7 BLU.
In the case of TSSLRKPPNGPSSV, the “The normalized value in BLU units” value [1] is reported as 143.8 BLU.
With TSSSRRGPGRPRKD the “The normalized value in BLU units (SPOT analysis, Myo5 SH3)” value [3] was 619.5 BLU.
For TSWARDNPSKPDIA, the “The normalized value in BLU units” value [1] was 81.6 BLU.
TTKHKAPPPPPPTA was tested, and the “The normalized value in BLU units (SPOT analysis, Myo5 SH3)” value [3] was 1684.9 BLU.
With TTNSRLCPSSPSSS the “The normalized value in BLU units (SPOT analysis, Myo5 SH3)” value [3] was 160.8 BLU.
With TTRKKKDPNAPKRA the “The normalized value in BLU units (SPOT analysis, Myo5 SH3)” value [3] was 274.6 BLU.
In the case of TTRRKKDPNAPKRR, the “The normalized value in BLU units” value [1] is reported as 999.1 BLU.
For TTTIKNRPVPPPLP, the “The normalized value in BLU units (SPOT analysis, Myo5 SH3)” value [3] was 1868.9 BLU.
TTTYKSRPDRPKPV was tested, and the “The normalized value in BLU units” value [1] was 309.3 BLU.
For TVCDRLIPTSPQKT, the “The normalized value in BLU units” value [1] was 127.7 BLU.
TVRTRRRPPPPPIP was tested, and the “The normalized value in BLU units (SPOT analysis, Myo5 SH3)” value [3] was 46234.4 BLU.
With TWKMHLWPVSPPQL the “The normalized value in BLU units” value [2] was 224.0 BLU.
For TYGFRVRPDFPVFG, the “The normalized value in BLU units” value [2] was 357.0 BLU.
With TYIWRYLPAPPVCI the “The normalized value in BLU units” value [1] was 444.5 BLU.
For TYLTRPLPSTPNED, the “The normalized value in BLU units” value [2] was 101.0 BLU.
For VAGYFVIPHTPMPS, the “The normalized value in BLU units” value [2] was 179.6 BLU.
For VAKSYGFPVPPKVN, the “The normalized value in BLU units” value [2] was 258.9 BLU.
VAPGLWFPNSPPPL was tested, and the “The normalized value in BLU units” value [2] was 4831.4 BLU.
VAPNRIPPKVPVIN was tested, and the “The normalized value in BLU units” value [1] was 61069.9 BLU.
With VARPLSVPGSPRDL the “The normalized value in BLU units (SPOT analysis, Myo5 SH3)” value [4] was 186.0 BLU.
With VASSRTEPSTPSRP the “The normalized value in BLU units” value [1] was 178.5 BLU.
VAVPFTLPVIPYDL was tested, and the “The normalized value in BLU units (SPOT analysis, Myo5 SH3)” value [4] was 240.5 BLU.
In the case of VAWCHDSPKPPSDR, the “The normalized value in BLU units” value [2] is reported as 30.6 BLU.
VCHSKYIPLKPIQD was tested, and the “The normalized value in BLU units” value [1] was 298.3 BLU.
With VCTIRSTPSQPIHC the “The normalized value in BLU units (SPOT analysis, Myo5 SH3)” value [3] was 244.9 BLU.
With VDSFKYEPLAPGND the “The normalized value in BLU units” value [1] was 134.0 BLU.
For VEKRKFTPIEPSLL, the “The normalized value in BLU units” value [1] was 171.2 BLU.
For VELHFPKPEDPACI, the “The normalized value in BLU units” value [2] was 14.9 BLU.
VEMKRKKPVRPVDI was tested, and the “The normalized value in BLU units” value [1] was 472.2 BLU.
In the case of VEPEWYLPILPMIL, the “The normalized value in BLU units (SPOT analysis, Myo5 SH3)” value [4] is reported as 235.7 BLU.
With VEVDKKVPVLPMVA the “The normalized value in BLU units (SPOT analysis, Myo5 SH3)” value [3] was 129.9 BLU.
With VEVIMHSPSDPEYA the “The normalized value in BLU units (SPOT analysis, Myo5 SH3)” value [4] was 150.4 BLU.
In the case of VFGTYLGPDAPLSK, the “The normalized value in BLU units” value [2] is reported as 130.5 BLU.
With VFKFLFHPVTPSHF the “The normalized value in BLU units” value [2] was 564.7 BLU.
For VFLRLISPTRPSLE, the “The normalized value in BLU units (SPOT analysis, Myo5 SH3)” value [4] was 1635.5 BLU.
VFSCLRDPVIPIKL was tested, and the “The normalized value in BLU units” value [2] was 132.4 BLU.
For VFSLMNCPAYPDVQ, the “The normalized value in BLU units (SPOT analysis, Myo5 SH3)” value [4] was 153.4 BLU.
With VFVEKSKPTYPGTE the “The normalized value in BLU units (SPOT analysis, Myo5 SH3)” value [3] was 96.4 BLU.
With VFYHRPAPKPPVTK the “The normalized value in BLU units” value [1] was 9049.3 BLU.
For VHFYKSLPQGPAPA, the “The normalized value in BLU units (SPOT analysis, Myo5 SH3)” value [3] was 509.7 BLU.
VHVLKYAPDEPNSL was tested, and the “The normalized value in BLU units (SPOT analysis, Myo5 SH3)” value [3] was 191.3 BLU.
For VIIGKTTPISPDEE, the “The normalized value in BLU units” value [1] was 54.0 BLU.
With VKATKWPPKLPEIQ the “The normalized value in BLU units (SPOT analysis, Myo5 SH3)” value [3] was 57.4 BLU.
For VKKEKKPPKIPKKV, the “The normalized value in BLU units (SPOT analysis, Myo5 SH3)” value [3] was 534.4 BLU.
In the case of VKPTKLEPENPQKP, the “The normalized value in BLU units (SPOT analysis, Myo5 SH3)” value [3] is reported as 91.3 BLU.
With VKRPRLNPFLPRDE the “The normalized value in BLU units” value [1] was 1186.3 BLU.
For VLEAYNVPTPPRLE, the “The normalized value in BLU units” value [2] was 57.4 BLU.
VLFMKGTPEFPKCG was tested, and the “The normalized value in BLU units (SPOT analysis, Myo5 SH3)” value [3] was 212.8 BLU.
With VLFNLDHPMVPENL the “The normalized value in BLU units (SPOT analysis, Myo5 SH3)” value [4] was 220.3 BLU.
With VLGPKYDPKCPEEH the “The normalized value in BLU units (SPOT analysis, Myo5 SH3)” value [3] was 156.7 BLU.
In the case of VLGVLNVPLPPQTR, the “The normalized value in BLU units (SPOT analysis, Myo5 SH3)” value [4] is reported as 233.0 BLU.
In the case of VLIKFVIPVYPSLP, the “The normalized value in BLU units (SPOT analysis, Myo5 SH3)” value [4] is reported as 561.8 BLU.
For VLKGFYSPSAPSYD, the “The normalized value in BLU units (SPOT analysis, Myo5 SH3)” value [4] was 290.1 BLU.
VLKIKPLPYKPRGR was tested, and the “The normalized value in BLU units (SPOT analysis, Myo5 SH3)” value [3] was 646.7 BLU.
For VLKNLPTPGEPFNF, the “The normalized value in BLU units” value [2] was 148.4 BLU.
VLKTLAFPINPSDI was tested, and the “The normalized value in BLU units (SPOT analysis, Myo5 SH3)” value [4] was 156.0 BLU.
For VLLPLRLPEIPPKG, the “The normalized value in BLU units” value [2] was 1072.4 BLU.
With VLSKFIKPKNPSLV the “The normalized value in BLU units (SPOT analysis, Myo5 SH3)” value [4] was 319.5 BLU.
With VLTKMNAPQKPEDI the “The normalized value in BLU units” value [2] was 296.2 BLU.
For VLTVKMSPSLPDEI, the “The normalized value in BLU units (SPOT analysis, Myo5 SH3)” value [3] was 229.5 BLU.
With VNIGRRSPYLPLQP the “The normalized value in BLU units (SPOT analysis, Myo5 SH3)” value [3] was 476.3 BLU.
With VNTPRSVPNSPNDG the “The normalized value in BLU units” value [1] was 65.0 BLU.
In the case of VPAILMTPICPRSL, the “The normalized value in BLU units (SPOT analysis, Myo5 SH3)” value [4] is reported as 138.1 BLU.
